Literature values, collected in US20260272868A1 (priority 2022, published 2026).

biological target: T1, 5-HT2A receptor (Homo sapiens, UniProt P28223); conditions: oral; cited from earlier work
T1 construct: (~mg per ~70 kg human, route); host or cells: human subjects (in vivo doses)
T1 sequence (P28223 whole entry): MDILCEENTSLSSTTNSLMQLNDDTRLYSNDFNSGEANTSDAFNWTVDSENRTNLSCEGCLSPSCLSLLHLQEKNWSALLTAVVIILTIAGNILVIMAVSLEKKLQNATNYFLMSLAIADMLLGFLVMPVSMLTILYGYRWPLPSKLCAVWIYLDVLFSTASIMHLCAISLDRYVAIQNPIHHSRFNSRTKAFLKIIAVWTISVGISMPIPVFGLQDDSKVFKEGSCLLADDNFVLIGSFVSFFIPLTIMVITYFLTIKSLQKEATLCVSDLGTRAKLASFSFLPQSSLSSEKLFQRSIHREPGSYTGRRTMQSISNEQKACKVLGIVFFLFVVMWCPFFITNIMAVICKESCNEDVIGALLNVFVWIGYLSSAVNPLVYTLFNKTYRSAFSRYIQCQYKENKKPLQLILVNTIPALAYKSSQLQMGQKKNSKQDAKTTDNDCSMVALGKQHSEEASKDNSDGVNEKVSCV

Compound	Typical Fully Psychedelic Dose Range
COc1cc(CCN)c(OC)cc1Br [2C-B]	15-25, oral ~mg per ~70 kg human
CCc1cc(OC)c(CCN)cc1OC [2C-E, 2-(4-Ethyl-2,5-dimethoxyphenyl)ethanamine]	10-20, oral ~mg per ~70 kg human
COc1cc(CC(C)N)c(OC)cc1C (centres unmarked) [DOM, 2,5-dimethoxy-4-methylamphetamine]	3-5, oral ~mg per ~70 kg human
CCN(CC)C(=O)[C@@H]1C=C2c3cccc4[nH]cc(c34)C[C@H]2N(C)C1 [LSD, lysergic acid diethylamide]	0.1-0.2, oral ~mg per ~70 kg human
COc1cc(CCN)cc(OC)c1OC [mescaline]	200-400, oral ~mg per ~70 kg human
CN(C)CCc1c[nH]c2cccc(O)c12 [psilocin]	15-25, oral ~mg per ~70 kg human

same assay, conditions: smoked; cited from earlier work

Compound	Typical Fully Psychedelic Dose Range
COc1ccc2[nH]cc(CCN(C)C)c2c1 [5-MeO-DMT, 5-methoxy-N,N-dimethyltryptamine]	5-10, smoked ~mg per ~70 kg human
CN(C)CCc1c[nH]c2ccccc12 [DMT, N,N-dimethyltryptamine]	20-40, smoked ~mg per ~70 kg human
